Data: PubChem BioAssay AID449750 (Broad Institute, 2010)
Active and inactive are the calls of the source. No rule for the calls is given here.

Test: non-covalent RecA intein splicing inhibitors, dose response, biochemical, cell-free, fluorescence, secondary screen (AID 449750)

Row | SMILES | AC50
1 | Cc1ccc(C(=O)N/N=C/c2ccc(-c3ccccc3[N+](=O)[O-])o2)cn1 | 9.17 µM
2 | O=c1c2ccccc2nc(/C=C/c2cccnc2)n1CCc1ccccc1 | 15.9 µM
3 | O=C(CCN1C(=O)/C(=C\c2ccccc2F)SC1=S)Nc1ccc(C(=O)O)c(O)c1 | 14.7 µM
4 | CC(=O)Nc1ccc(S(=O)(=O)NC2=C(N3CCN(c4ccc(F)cc4)CC3)C(=O)c3ccccc3C2=O)cc1 | 26.7 µM
5 | Nc1ccc(N(CCO)CCO)cc1 | > 38 µM (inactive)
6 | Cc1cc2c3c(c1)C(C)CC(C)(C)N3C(=O)C2=C(C#N)C#N (stereo not given) | > 38 µM (inactive)
7 | c1ccc(C2[C@H]3CN(Cc4cccnc4)[C@H](c4ccccc4)C34CC2(c2cccnc2)C4)cc1 (stereo not given in full) | 10.7 µM
8 | Cc1ccc(C)c(Sc2ccc(NC(=O)CCl)cc2)c1 | 1.27 µM
9 | Cc1c(C#N)c(NC(=O)CCl)n(Cc2cccs2)c1C | 8.86 µM
10 | COc1ccccc1C1C(C#N)=C(N)Oc2c1c(-c1ccccc1)nn2-c1ccccc1 (stereo not given) | 11.9 µM
11 | O=C1C(Cc2ccccc2)Nc2ncnc(N3CCc4ccccc4C3)c2N1Cc1ccc(Cl)cc1 (stereo not given) | > 38 µM (inactive)
12 | CCOc1cc(C(c2c(C)[nH][nH]c2=O)c2c(C)[nH][nH]c2=O)ccc1OC(=O)c1cccc([N+](=O)[O-])c1 | 6.48 µM
13 | CCOc1ccc(NC(=O)C(c2ccccn2)N(C(=O)CCl)c2ccc(F)cc2)cc1 (stereo not given) | 36.2 µM
14 | Cc1ccc(-c2[nH]nc3c2C(c2ccc(OC(=O)N4CCOCC4)cc2)C(C#N)=C(N)O3)cc1 (stereo not given) | 21.1 µM
15 | O=c1cc(-c2ccccc2)[nH]n1-c1ccc([N+](=O)[O-])cc1 | 13.1 µM
16 | CN(C)c1ccc2nsnc2c1[N+](=O)[O-] | > 38 µM (inactive)
17 | Cc1[nH][nH]c(=O)c1C(c1ccc(-c2ccccc2C(=O)O)o1)c1c(C)[nH][nH]c1=O | 3.19 µM
18 | O=c1c2ccccc2nc(/C=C/c2cccnc2)n1Cc1ccccc1 | 13.6 µM
19 | CCc1ccc(OCC(=O)N/N=C2\CC(=O)c3ccccc32)cc1 | 26.8 µM
20 | CC(=O)NCCn1c(SCc2ccccc2C)nc2ccccc2c1=O | > 38 µM (inactive)
21 | COC(=O)N/N=C\c1ccc(OC(=O)c2ccco2)cc1 | > 38 µM (inactive)
22 | Cn1c(=O)c([N+](=O)[O-])c(-n2ccnc2)c2ccccc21 | > 38 µM (inactive)
23 | COc1cc(/C=C(\C#N)c2nc3ccccc3o2)ccc1O | > 38 µM (inactive)
24 | CC1=NN(c2ccccc2)C(=O)/C1=C/c1ccc(Cl)cc1 | 4.65 µM
25 | O=C(Nc1ccccc1)C1=C(c2ccccc2)S(=O)(=O)CCS1(=O)=O | > 38 µM (inactive)

Row | SMILES | AC50
26 | CC1=NN(c2ccc(N)cc2)C(=O)C1 | 3.44 µM
27 | Cc1cccc(CS(=O)(=O)c2ncc(Cl)c(C(=O)Nc3ccc(F)cc3)n2)c1 | > 38 µM (inactive)
28 | CN1C=C/C(=C\c2cc[n+](C)c3ccccc23)c2ccccc21 | 29.3 µM
29 | COC(=O)c1sc(-c2ccc(Cl)cc2)cc1NC(=O)/C=C/C(=O)O | 9.69 µM
30 | CCCCCCCCCCOC(=O)Cn1c(COc2ccccc2C)[n+](C)c2ccccc21 | 6.93 µM
31 | COc1ccc(C2CC(c3cccs3)=NN2C(=O)CCl)cc1OC (stereo not given) | 3.39 µM
32 | CCCCCCCCCCC[N+](C)(C)CC/C=C1/c2ccccc2Sc2ccc(Cl)cc21 | 4.77 µM
33 | COc1ccc(O)c(C(c2c(C)[nH][nH]c2=O)c2c(C)[nH][nH]c2=O)c1 | 8.26 µM
34 | N#CCCn1[nH]c(-c2ccccc2)cc1=O | 8.16 µM
35 | Cn1nc([N+](=O)[O-])nc1Sc1nnc(-c2ccccc2)o1 | > 38 µM (inactive)
36 | Cc1ccc(NC(=O)c2nc(S(=O)(=O)Cc3ccccc3C)ncc2Cl)cc1C | > 38 µM (inactive)
37 | NS(=O)(=O)c1ccc(NC2=CC(=O)C(=O)c3ccccc32)cc1 | 7.47 µM
38 | C=CCn1c(N)c(C(=O)Nc2cccc(C)c2)c2nc3ccccc3nc21 | 14.4 µM
39 | CC1=NN(C)C(=O)C1Cc1c(F)cccc1Cl (stereo not given) | > 38 µM (inactive)
40 | CC(C)c1nnc(NC(=O)c2nc(S(=O)(=O)Cc3ccccc3)ncc2Cl)s1 | 15 µM
41 | O=C(Nc1ccccc1N(C(=O)c1ccco1)S(=O)(=O)c1cccs1)c1ccco1 | 23.1 µM
42 | CCc1ccc(S(=O)(=O)/N=C2\C=C(Nc3cccc(C(=O)O)c3)C(=O)c3ccccc32)cc1 | 0.353 µM
43 | O=C(CSc1ncnc2c1nnn2Cc1ccccc1F)N1CCN(c2ccccc2)CC1 | > 38 µM (inactive)
44 | O=C(CCl)N(CCc1ccccc1)CCc1ccccc1 | 3.25 µM
45 | COc1ccccc1NC(=O)CSc1nc2c(sc3ccccc32)c(=O)n1CCN(C)C | > 38 µM (inactive)
46 | CC(=O)Oc1ccc(N(C(C)=O)S(=O)(=O)c2ccc3ccccc3c2)cc1Br | 29.5 µM
47 | CCC(C)[C@@H](NC(=O)OC(C)(C)C)c1nnc(S(=O)(=O)Cc2cccc(C)c2)o1 (stereo not given in full) | > 38 µM (inactive)
48 | CCCc1noc2c1C(c1ccoc1)C(C#N)=C(N)N2 (stereo not given) | > 38 µM (inactive)
49 | CC(C)(C)c1[nH]nc2c1C(c1ccco1)C(C#N)=C(N)O2 (stereo not given) | 38.8 µM
50 | O=C(CCN1C(=O)/C(=C/c2cccs2)SC1=S)Nc1ccc(C(=O)O)c(O)c1 | 19 µM

Row | SMILES | AC50
51 | O=C(O)c1ccc(-n2c(=O)c3ccccc3c3ccccc3c2=O)cc1 | > 38 µM (inactive)
52 | CC(=O)NC1N=C(C)N(c2ccccc2)C1=O (stereo not given) | 33.7 µM
53 | O=C1/C(=C/Nc2cccc([N+](=O)[O-])c2)CCc2ccccc21 | > 38 µM (inactive)
54 | CCOc1cc(NC2CS(=O)(=O)CC2O)c(OCC)cc1NC(=O)c1ccccc1 (stereo not given) | > 38 µM (inactive)
55 | O=C(NC(NC(=S)Nc1ccc(Cl)cc1Cl)C(Cl)(Cl)Cl)c1cccc([N+](=O)[O-])c1 (stereo not given) | 2.62 µM
56 | C#CC(=O)N(c1cc(OC)ccc1OC)C(C(=O)NC1CCCC1)c1cccs1 (stereo not given) | 2.35 µM
57 | Cc1ccc(SCc2[nH]nc3c2C2(CCSCC2)C(C#N)=C(N)O3)cc1 | 30.4 µM
58 | O=[N+]([O-])c1cc([N+](=O)[O-])c2cc3ccccc3nc2c1 | 7.29 µM
59 | CCc1[nH]nc2c1C(c1cccnc1)C(C#N)=C(N)O2 (stereo not given) | > 38 µM (inactive)
60 | O=C(CCl)N=c1sccn1Cc1ccc(Cl)cc1Cl | 5.88 µM
61 | Cc1ccc(-c2cc(=O)[nH][nH]2)c(C)c1 | 34.3 µM
62 | O=C(O)CN1C(=O)/C(=C\c2cccc(OCc3ccc(Cl)cc3Cl)c2)SC1=S | 6.45 µM
63 | Cc1ccc(N2C(=O)C(Cl)=C(N3CCOCC3)C2=O)c(C)c1 | > 38 µM (inactive)
64 | CCOC(=O)c1cnc(N)nc1C(F)(F)F | > 38 µM (inactive)
65 | O=C(NNC(=O)c1ccc2ccccc2c1O)c1ccccc1Cl | > 38 µM (inactive)
66 | COc1cc(C2CC(c3cccs3)=NN2C(=O)CCl)ccc1OC(F)F (stereo not given) | > 38 µM (inactive)
67 | CC(=O)Oc1ccc2c(=O)oc(-c3ccccc3C)nc2c1 | > 38 µM (inactive)
68 | CN(C(=O)c1cccc(COc2ccc(Cl)cc2Cl)c1)c1ccccc1 | > 38 µM (inactive)
69 | N#CCn1c(CCl)nc2ccccc2c1=O | > 38 µM (inactive)
70 | CCOC(=O)c1nn(-c2ccccc2C)c(=O)c2c(N)scc12 | > 38 µM (inactive)
71 | CC(C)c1ccc(S(=O)(=O)/N=C2\C=C(NS(=O)(=O)c3ccccc3)C(=O)c3ccccc32)cc1 | 6.05 µM
72 | CCCCn1c(NC(=O)c2ccc(Br)o2)c(S(=O)(=O)c2ccccc2)c2nc3ccccc3nc21 | > 38 µM (inactive)
73 | COc1ccccc1Nc1cc2cc(Br)ccc2c(=O)[nH]1 | 6.07 µM
74 | CCCCCCn1c(N2CCC(C(N)=O)CC2)nc2c1c(=O)n(C)c(=O)n2C | > 38 µM (inactive)
75 | COC(=O)C(C#N)C(c1cccnc1)c1c(C)[nH][nH]c1=O (stereo not given) | > 38 µM (inactive)
